Laboratory results from PubChem BioAssay (NCI).
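How tested: cells in 96-well plates exposed to compound for 48 hours at five concentrations. TGI denotes the concentration required for complete inhibition of growth.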

What was measured:
Assay in all cases: NCI-60 cell line screen, 48 h
[1] = tested on: 786-0 renal
[2] = tested on: CAKI-1 renal
[3] = tested on: NCI-H522 lung
[4] = tested on: OVCAR-4 ovarian
[5] = tested on: NCI/ADR-RES ovarian
[6] = tested on: BT-549 breast
[7] = tested on: NCI-H226 lung
[8] = tested on: CCRF-CEM leukemia
[9] = tested on: UACC-62 melanoma
[10] = tested on: A549 NSCLC
[11] = tested on: ACHN renal
[12] = tested on: SNB-75 CNS
[13] = tested on: NCI-H460 lung
[14] = tested on: SK-MEL-2 melanoma
[15] = tested on: KM12 colon
[16] = tested on: MDA-MB-231 breast

`COc1ccc2c(c1)c1c(n2CCN2CCOCC2)-c2ccccc2CC1` was tested, and the TGI [1] was 92.1 µM, the TGI [2] was > 100 µM and the TGI [3] was > 100 µM. For the same molecule, the TGI [4] was > 100 µM, the TGI [5] was > 100 µM and the TGI [6] was > 100 µM. For the same molecule, the TGI [7] was 48.9 µM, the TGI [8] was 69.5 µM and the TGI [9] was > 100 µM. For the same molecule, the TGI [10] was > 100 µM, the TGI [11] was > 100 µM and the TGI [12] was > 100 µM. The TGI [13] was 89.2 µM, the TGI [14] was 82.5 µM and the TGI [15] was > 100 µM. The TGI [16] was > 100 µM.
For `CCOC(=O)c1cc2c([N+](=O)[O-])c(NC(C)=O)ccc2s1`, the TGI [1] was > 100 µM, the TGI [2] was > 100 µM and the TGI [3] was > 100 µM. For the same molecule, the TGI [4] was > 100 µM, the TGI [5] was > 100 µM and the TGI [6] was > 100 µM. For the same molecule, the TGI [7] was 54.8 µM, the TGI [8] was > 100 µM and the TGI [9] was > 100 µM. The TGI [10] was > 100 µM, the TGI [11] was > 100 µM and the TGI [12] was 94.1 µM. The TGI [13] was > 100 µM, the TGI [14] was > 100 µM and the TGI [15] was > 100 µM. The TGI [16] was 83.9 µM.
In the case of `CCOP(=O)(OCC)[C@H](O)c1ccsc1`, the TGI [1] is reported as > 100 µM, the TGI [2] is reported as > 100 µM and the TGI [3] is reported as > 100 µM. The TGI [4] was > 100 µM, the TGI [5] was > 100 µM and the TGI [6] was > 100 µM. The TGI [7] was > 100 µM, the TGI [8] was > 100 µM and the TGI [9] was > 100 µM. The TGI [10] was > 100 µM, the TGI [11] was > 100 µM and the TGI [12] was > 100 µM. For the same molecule, the TGI [13] was > 100 µM, the TGI [14] was > 100 µM and the TGI [15] was > 100 µM. The TGI [16] was > 100 µM.
`CCOC(=O)c1cc(=C2\CCN(CC(C)CC)C2=S)/c(=C(/O)CC)[nH]1` (stereo not given) showed a TGI [1] of 30.5 µM, a TGI [2] of 26.4 µM and a TGI [3] of 36.4 µM. For the same molecule, the TGI [4] was 30.9 µM, the TGI [5] was 75.3 µM and the TGI [6] was 35.4 µM. It also gave a TGI [7] of 45.3 µM, a TGI [8] of 21.7 µM and a TGI [9] of 30.8 µM. For the same molecule, the TGI [10] was > 100 µM, the TGI [11] was 28.9 µM and the TGI [12] was 36.9 µM. It also gave a TGI [13] of 40.8 µM, a TGI [14] of 44.4 µM and a TGI [15] of 32 µM. The TGI [16] was 31.8 µM.
For `Cc1cccc(N2C(=O)C3ON(C(C(N)=O)c4ccccc4)C(c4c5ccccc5c(Cl)c5ccccc45)C3C2=O)c1C` (stereo not given), the TGI [1] was 20.5 µM, the TGI [2] was 27.3 µM and the TGI [3] was > 50 µM. It also gave a TGI [4] of 25.3 µM, a TGI [5] of 37.1 µM and a TGI [6] of 22.6 µM. For the same molecule, the TGI [7] was 14.9 µM, the TGI [8] was > 50 µM and the TGI [9] was 13.8 µM. It also gave a TGI [10] of 48.5 µM, a TGI [11] of 19.7 µM and a TGI [12] of 19.4 µM. The TGI [13] was 21.6 µM, the TGI [14] was 20 µM and the TGI [15] was 8.08 µM. The TGI [16] was 18.1 µM.
For `O=C(/C(=C(/Br)I)c1ccccc1)c1ccccc1`, the TGI [1] was 39.5 µM, the TGI [2] was > 100 µM and the TGI [5] was 37.4 µM. It also gave a TGI [6] of 54.3 µM, a TGI [7] of 40.4 µM and a TGI [8] of 30.4 µM. For the same molecule, the TGI [9] was 34.4 µM, the TGI [10] was > 100 µM and the TGI [11] was 71.2 µM. For the same molecule, the TGI [12] was 71 µM, the TGI [13] was 37.2 µM and the TGI [15] was 38 µM. For the same molecule, the TGI [16] was 60.1 µM.
`Cc1cc(-c2nc3ccccc3s2)ccc1NS(=O)(=O)O` was tested, and the TGI [1] was > 100 µM, the TGI [2] was > 18.3 µM and the TGI [3] was > 67.3 µM. For the same molecule, the TGI [4] was > 100 µM, the TGI [5] was > 100 µM and the TGI [6] was > 100 µM. For the same molecule, the TGI [7] was > 100 µM, the TGI [8] was > 100 µM and the TGI [9] was > 100 µM. The TGI [10] was > 100 µM, the TGI [11] was > 100 µM and the TGI [12] was > 100 µM. For the same molecule, the TGI [13] was > 100 µM, the TGI [15] was > 55.4 µM and the TGI [16] was > 100 µM.
`CCOC(=O)c1c(NC(=O)c2ccccc2)sc2c1CCCC2` was tested, and the TGI [1] was > 100 µM, the TGI [2] was > 100 µM and the TGI [5] was > 100 µM. The TGI [6] was > 100 µM, the TGI [7] was > 100 µM and the TGI [8] was > 100 µM. For the same molecule, the TGI [9] was > 100 µM, the TGI [11] was > 100 µM and the TGI [12] was > 100 µM. For the same molecule, the TGI [14] was > 100 µM, the TGI [15] was > 100 µM and the TGI [16] was > 100 µM.
